Like-named read-outs stand apart in the source and are kept apart here.
What was measured:
TNF-α induced IL-6 = experiment: TNF-α-induced IL-6 production determined by IL-6 ELISA; format: cell-based; details: for % IL6 production compare to TNF stimulation of IL6 (100%), HAEC, IL6, @ 5 uM / % IL6 production compare to TNF stimulation of IL6 (100%), Compds tested @ 10 uM HAEC, IL6: TNF stimulated; for % IL6 production compare to TNF stimulation of IL6 (100%), HAEC, IL6, @ 5 uM: compound 5 uM (bracketed value); for % IL6 production compare to TNF stimulation of IL6 (100%), Compds tested @ 10 uM HAEC, IL6: compound 10 uM; for activity at 10 µM: Homo sapiens
In short: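 Human aortic endothelial cells grown to ≥90% confluence, then treated with compounds and stimuli in serum-free medium with 0.2% albumin. Secreted IL-6 in collected media measured by sandwich ELISA (2 ug/ml capture, 200 ng/ml biotinylated detection antibody, streptavidin-HRP), read at 450 nm.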

endothelial cells = experiment: Toxicity to endothelial cells when AGE stimulated; format: cell-based
Method: In general, to determine if there is cytotoxic activity associated with a compound, cells of a particular type, in a growing stage or a quiescient stage, are treated with the compound of interest. Various parameters of cell death or cessation are used to measure the effects of the compound. For example, the amount of nucleic acid or protein synthesis can be measured or visual observation of the state of the cells, such as release from the substrate, can be used to measure the state of the cells.
All treatments, compound-added and controls were carried out in serum free media containing 0.2% albumin. Media from all conditions were collected and used for IL-6 ELISA.

[1] = tested on: Human aortic smooth muscle cells; details: 24 h
Method: Human aortic smooth muscle cells (Clonetics) were used. Cells were grown in basal medium containing 5% fetal bovine serum supplemented with growth factors, basic fibroblast growth factor, epidermal growth factor and insulin. […] The cells were then serum starved for 24 h to induce quiescence. Fresh growth medium containing no compound or 10 μM compound was then added and further incubated for 24 h. Cell number was determined by using a cell proliferation assay kit (Celltiter96 AQueous from Promega).

cells = experiment: Cytotoxicity/Lactate Dehydrogenase assay; format: cell-based; details: toxic or cause cell death; concentrations (uM) given
Method: An appropriate number of cells are plated in four 96-well plates, one plate for “day 0” and three plates for days 1-3. Cells are treated with at least one compound of the present invention in varying concentrations with and without the apoptosis inducer cisplatin (2 μM) (“+cis” or “-cis”). Unteated cells are also assayed with and without cisplatin. After transfection, the plates are incubated at 37° C. overnight.
An appropriate number of cells are plated in four 96-well plates, one plate for “day 0” and three plates for days 1-3. Cells are treated with at least one compound of the present invention in varying concentrations. The negative control cells have normal media conditions, a duplicate set of wells is treated with the composition in which the compound is provided, but there is no added compound and the positive control cells are treated with the apoptosis inducer cisplatin (2 μM). All of the cells are transfected with a vector having a promoter that is responsive to apoptosis conditions. When apoptosis occurs, the promoter is turned on and the lactic dehydrogenase gene is activated and the enzyme protein is made and active. Activity is easily detected with a color change. After transfection, the plates are incubated at 37° C. overnight.
About 8 mls of warmed alpha MEM LDH lysis buffer (2% Triton X100) and about 8 mls of culture media (1/2 dilution) are combined. Two 96-well v-bottom plates are prepared, one labeled “lysis” and one labeled “supernatant.” To lyse the cells, about 200 μl Alpha MEM lysis buffer (diluted 1/2) is added to one test plate from which the supernatant has been removed and added to the plate labeled supernatant. After mixing, about 200 μl of lysed cells are transferred to the lysis plate. Both the lysis and supernatant plates are centrifuged at about 1600 rpm for about 10 min. After centrifugation, about 100 μl of both the supernatant or lysate is transferred to corresponding 96-well flat-bottomed plates.
The assay for cytotoxicity uses the Cytotoxicity Detection Kit (LDH) from Roche Diagnostics Corp. (Indianapolis, Ind.). Using the directions provided, the dye solution is mixed and added each well of the lysate and supernatant plate and incubated for up to 20-25 min at 15-25° C. in the dark.

[2] = endothelial cells, AGE stimulated
[3] = 24 h, read-out: Inhibition of TNF-induced IL6 production

COc1ccc(Nc2nc(NC3CCCCCC3)nc(NC3CCN(Cc4ccccc4)CC3)n2)cc1Cl [Compound 134, N-(1-Benzyl-piperidin-4-yl)-N′-(3-chloro-4-methoxy-phenyl)-N″-cycloheptyl-[1,3,5]triazine-2,4,6-dianmine]
% IL6 production compare to TNF stimulation of IL6 (100%), HAEC, IL6, @ 5 uM (TNF-α induced IL-6; HAEC): 55%
% IL6 production compare to TNF stimulation of IL6 (100%), Compds tested @ 10 uM HAEC, IL6 (TNF-α induced IL-6; HAEC): total cell death
Toxic (AGE-treated) (endothelial cells; [2]): toxic

COc1ccc(Nc2nc(NCCCCCO)nc(N(C)C3CCNCC3)n2)cc1Cl [Compound 109, 5-[4-(3-chloro-4-methoxy-phenylamino)-6-(methyl-piperidin-4-yl-amino)-1,3,5-triazin-2-ylamino]-pentan-1-ol]
melting point: 101 °C
activity at 10 µM (TNF-α induced IL-6; 24 h, read-out: % IL6 production compare to TNF stimulation of IL6 (100%), Compds tested @ 10 uM HAEC, IL6): 40%
activity at 10 µM (TNF-α induced IL-6; [3]): 25 to 50%

COc1ccc(Nc2nc(NC3CCCCCC3)nc(NC3CCNCC3)n2)cc1Cl [Compound 135, N^2-(3-chloro-4-methoxy-phenyl)-N^4-cycloheptyl-N^6-piperidin-4-yl-1,3,5-triazine-2,4,6-triamine]
% IL6 production compare to TNF stimulation of IL6 (100%), HAEC, IL6, @ 5 uM (TNF-α induced IL-6; HAEC): 60%
% IL6 production compare to TNF stimulation of IL6 (100%), Compds tested @ 10 uM HAEC, IL6 (TNF-α induced IL-6; HAEC): total cell death
Toxic (AGE-treated) (endothelial cells; [2]): toxic

CN(c1nc(Nc2ccc(OCc3ccccc3)c(Cl)c2)nc(NC2CCCCCC2)n1)C1CCNCC1
Proliferation Data, cell death [1]: celldeath at 10 uM
Proliferation Data, cell morphology (rounding, blunting, morphology change) [1]: cell morphologychange at 7.5 uM
Inflammation Data, activity in words at 1 uM (TNF-α induced IL-6): not active
Inflammation Data, cell death at 5 uM (TNF-α induced IL-6; 5 uM): 50%
Inflammation Data, cell death at 10 uM (TNF-α induced IL-6; 10 uM): total cell death

COc1ccc(Nc2nc(Nc3ccc(OC)c(Cl)c3)nc(N(C)C3CCN(C)CC3)n2)cc1Cl [Compound 121, N,N′-Bis-(3-chloro-4-methoxy-phenyl)-N″-methyl-N″-(1-methyl-piperidin-4-yl)-[1,3,5]triazine-2,4,6-triamine]
Toxicity (cells): Toxic by toxicityassay at 0.75 uM.Starts blunting by1 uM and rounding by5 uM
% IL6 production compare to TNF stimulation of IL6 (100%), HAEC, IL6, @ 5 uM (TNF-α induced IL-6; HAEC): [50 @ 5 uM, but some %
% IL6 production compare to TNF stimulation of IL6 (100%), Compds tested @ 10 uM HAEC, IL6 (TNF-α induced IL-6; HAEC): total cell death @ 10 uM
toxicity @ 5 uM (TNF-α induced IL-6; human, 24 h, 5 µM): toxicity (~20%)]
Toxic (AGE-treated) (endothelial cells): toxic

CN1CCC(N(C)c2nc(Nc3ccc(OCc4ccccc4)c(Cl)c3)nc(NC3CCCCCC3)n2)CC1
Proliferation Data, cell death [1]: no celldeath
Proliferation Data, cell morphology (rounding, blunting, morphology change) [1]: cell morphologychange at 5 & 10 uM
Inflammation Data, activity in words at 1 uM (TNF-α induced IL-6): Not active
Inflammation Data, activity in words at 5 uM (TNF-α induced IL-6; 5 uM): Not active
Inflammation Data, cell death at 5 uM (TNF-α induced IL-6; 5 uM): 30%
Inflammation Data, cell death at 10 uM (TNF-α induced IL-6; 10 uM): totaldeath

CN1CCC(N(C)c2nc(Nc3ccc(O)c(Cl)c3)nc(NC3CCCCCC3)n2)CC1 [drawing 1613]
Proliferation Data, cell morphology (rounding, blunting, morphology change) [1]: cell bluntingat 3 to 10 uM
Inflammation Data, cell death at 10 uM (TNF-α induced IL-6; human, 24 h, 10 µM): total cell death

COc1ccc(Nc2nc(NC3CCCCCC3)nc(N(C)C3CCNCC3)n2)cc1F [Compound 159, N^2-Cycloheptyl-N^4-(3-fluoro-4-methoxy-phenyl)-N^6-methyl-N^6-piperidin-4-yl-1,3,5-triazine-2,4,6-triamine]
% IL6 production compare to TNF stimulation of IL6 (100%), HAEC, IL6, @ 5 uM (TNF-α induced IL-6; HAEC): total cell death @ 5 and 10
% IL6 production compare to TNF stimulation of IL6 (100%), Compds tested @ 10 uM HAEC, IL6 (TNF-α induced IL-6; HAEC): total cell death @ 5 and 10
Toxic (AGE-treated) (endothelial cells): toxic

COc1ccc(Nc2nc(Cl)nc(Cl)n2)cc1F [Compound 124, (4,6-Dichloro-[1,3,5]triazin-2-yl)-(3-fluoro-4-methoxy-phenyl)-amine]
melting point: 134 °C

COc1ccc(Nc2nc(NC3CCCCCC3)nc(Oc3ccccc3F)n2)cc1Cl [Compound E28, N^2-(3-chloro-4-methoxyphenyl)-N^4-cycloheptyl-6-(2-fluorophenoxy)-1,3,5-triazine-4,2-diamine]
melting point: 98 to 100 °C

COc1ccc(Nc2nc(NC(C)C)nc(N(C)C3CCNCC3)n2)cc1Cl [Compound 107, N^2-(3-chloro-4-methoxy-phenyl)-N^4-isopropyl-N^6-methyl-N^6-piperidin-4-yl-1,3,5-triazine-2,4,6-triamine]
melting point: 129 °C
% IL6 production compare to TNF stimulation of IL6 (100%), @ 5 uM (TNF-α induced IL-6; HAEC, 5 uM compound, TNF stimulation = 100%): 60 @ 5 uM %
activity at 10 µM (TNF-α induced IL-6; [3]): 50 to 75%

COc1ccc(Nc2nc(NC3CCCCCC3)nc(OC(C)C)n2)cc1Cl [Compound E21, N^2-(3-chloro-4-methoxyphenyl)-N^4-cycloheptyl-6-isopropoxy-1,3,5-triazine-2,4-diamine]
melting point: 136 to 138 °C

CCN1CCCC1CNc1nc(Nc2ccc(OC)c(Cl)c2)nc(NC2CN3CCC2CC3)n1 (stereo not shown) [Compound 148, N-(1-Aza-bicyclo[2.2.2]oct-3-yl)-N′-(3-chloro-4-methoxy-phenyl)-N″-(1-ethyl-pyrrolidin-2-ylmethyl)-[1,3,5]triazine-2,4,6-triamine]
% IL6 production compare to TNF stimulation of IL6 (100%), HAEC, IL6, @ 5 uM (TNF-α induced IL-6; HAEC): 60%
% IL6 production compare to TNF stimulation of IL6 (100%), Compds tested @ 10 uM HAEC, IL6 (TNF-α induced IL-6; HAEC): total cell death
Toxic (AGE-treated) (endothelial cells): toxic

CCN1CCCC1CNc1nc(NCC2CCCCC2)nc(Nc2ccc(OC)c(F)c2)n1 (stereo not shown) [Compound 126, N-Cyclohexylmethyl-N′-(1-ethyl-pyrrolidin-2-ylmethyl)-N″-(3-fluoro-4-methoxy-phenyl)-[1,3,5]triazine-2,4,6-triamine]
melting point: 72 °C

COc1ccc(Nc2nc(Nc3ccc(OC)c(Cl)c3)nc(NC3CCCCCC3)n2)cc1Cl [Compound 122, N,N′-Bis-(3-chloro-4-methoxy-phenyl)-N″-cycloheptyl-[1,3,5]triazine-2,4,6-triamine]
melting point: 183 °C

COc1ccc(Nc2nc(NC3CCCCCC3)nc(N3CCSCC3)n2)cc1Cl
melting point: 78 to 80 °C

CN1CCC(N(C)c2nc(Nc3ccc(O)c(Cl)c3)nc(NC3CCCCCC3)n2)CC1 [Compound 138, 2-Chloro-4-{4-cycloheptylamino-6-[methyl-(1-methyl-piperidin-4-yl)-amino]-[1,3,5]triazin-2-ylamino}-phenol]
% IL6 production compare to TNF stimulation of IL6 (100%), Compds tested @ 10 uM HAEC, IL6 (TNF-α induced IL-6; HAEC): toxic
Toxic (AGE-treated) (endothelial cells): toxic

COc1ccc(Nc2nc(O)nc(NC3CCCCCC3)n2)cc1Cl [Compound 147, 4-(3-Chloro-4-methoxy-phenylamino)-6-cycloheptylamino-1,3,5-triazin-2-ol]
melting point: > 310 °C

COc1ccc(Nc2nc(NC3CCCCCC3)nc(OC3CCCN(C(C)=O)C3)n2)cc1Cl (stereo not shown) [Compound E20, 1-[3-{4-(3-chloro-4-methoxyanilino)-6-cycloheptylamino-1,3,5-triazine-2-yloxy}piperidino]-1-ethanone]
melting point: 138 to 140 °C

— patent US7332489B2, “Methods and compositions of novel triazine compounds” (Reddy US Therapeutics, Inc., priority 2003, dated 2008)
